Assay results from patent publication US4005095A, “Substituted thienyl-acetic acid esters” (Innothera, priority 1974, dated 1977).
Counter-ions that a name gives are not always drawn.

How the values were obtained:
in vivo = conditions: mouse, in vivo, ip
Method: (§1) The acute toxicity was evaluated by intraperitoneal administration to mice. The products were suspended in a dilute pseudo-solution of carboxymethyl-cellulose.
(§2) The mortality was checked over the course of the 7 days which followed the treatment.

rat duodenum = test: spasmolytic activity, papaverine type (contracting agent barium chloride), technique of MAGNUS; format: cell-based; conditions: for IC50: Tyrode solution 38° C, concentration causing 50% inhibition of the contraction, compound tested (X), read-out: Spasmolytic activity, papaverine type, ED 50 (X); for Spasmolytic activity, papaverine type, ratio of ED 50 values, reference (R) to compound (X): relative to papaverine hydrochloride
Method: The spasmolytic activity was studied on the rat duodenum (1) or on the guinea pig ileum (2), kept alive in an aerated Tyrode solution heated to 38° C, in accordance with the technique of MAGNUS (Archiv. Ges. Physiol., 1905, 180, 1-71).
(1) The contracting agent used was barium chloride and the reference antagonistic agent was papaverine hydrochloride (R).

guinea pig ileum = test: spasmolytic activity, atropine type (contracting agent acetylcholine chloride), technique of MAGNUS; conditions: Cavia porcellus, read-out: Spasmolytic activity, atropine type, ED 50 (X)
Text: (2) The contracting agent used was acetylcholine chloride and the reference antagonistic agent was atropine sulphate (R).
Again, the activity of the compounds tested (X) was compared with that of the reference agent chosen (R), by calculating the ratio of their ED 50 values.

mice = test: in vivo; conditions: mice, intraperitoneal, mortality over 7 days
Method: as §1, §2

Row | SMILES | LD50 at 168 h (in vivo) | IC50 (rat duodenum) | Spasmolytic activity, papaverine type, ratio of ED 50 values, reference (R) to compound (X) (rat duodenum) | IC50 (guinea pig ileum) | Acute toxicity in mice, intraperitoneal administration, LD 50 (mice)
1 | CCN(CC)CCCOC(=O)C(c1ccc(C)s1)C1CCCCC1 (stereo not shown) [Example 20, 3-Diethylaminopropyl (5-methyl-thienyl-2)-cyclohexyl-acetate (hydrochloride)] | 80 mg/kg | 1.1 µg/mL | 5.45 | 0.009 µg/mL | –
2 | Cc1ccc(C(C(=O)OCCCN2CCCC2)c2ccccc2)s1 (stereo not shown) [Example 21, 3-Pyrrolidino-propyl (5-methyl-thienyl-2)-phenyl-acetate (oxalate)] | 100 mg/kg | 2.55 µg/mL | 2.16 | 0.1 µg/mL | –
3 | CCN(CC)CCCOC(=O)C(c1ccsc1C)C1CCCCC1 (stereo not shown) [Example 22, 3-Diethylaminopropyl (2-methyl-thienyl-3)-cyclohexyl-acetate hydrochloride] | 80 mg/kg | 0.38 µg/mL | 19.75 | 0.0115 µg/mL | –
4 | O=C(OCCN1CCCCC1)C(=C1CCCCC1)c1ccsc1 [Example 23, 2-Piperidino-ethyl cyclohexylidene-(thienyl-3)-acetate (hydrochloride)] | 80 mg/kg | 2.4 µg/mL | 1.46 | 0.39 µg/mL | –
5 | O=C(OCCCN1CCCCC1)C(=C1CCCCC1)c1ccsc1 [Example 24, 3-Piperidino-propyl cyclohexylidene-(thienyl-3)-acetate hydrochloride] | 150 mg/kg | 0.8 µg/mL | 1.56 | 0.8 µg/mL | –
6 | CC(C[N+]1(C)CCCC1)OC(=O)C(=C1CCCCC1)c1ccsc1.[I-] (stereo not shown) [Example 25, 2-Pyrrolidino-isopropyl cyclohexylidene-(thienyl-3)-acetate (mono-iodomethylate)] | – | – | 1 | – | 80 mg/kg
